The results in this text go back to paper PMC5651055, “Effects of Resveratrol on the Structure and Catalytic Function of Bovine Liver catalase (BLC): Spectroscopic and Theoretical Studies” (Advanced Pharmaceutical Bulletin, 2017).

Molecules are shown by their SMILES.

The target of the experiment is T1, Bovine liver catalase (BLC) (Bos taurus, UniProt P00432).
T1 construct: gene CAT; native homotetramer from bovine liver (Sigma-Aldrich)
T1 sequence (P00432 2-527): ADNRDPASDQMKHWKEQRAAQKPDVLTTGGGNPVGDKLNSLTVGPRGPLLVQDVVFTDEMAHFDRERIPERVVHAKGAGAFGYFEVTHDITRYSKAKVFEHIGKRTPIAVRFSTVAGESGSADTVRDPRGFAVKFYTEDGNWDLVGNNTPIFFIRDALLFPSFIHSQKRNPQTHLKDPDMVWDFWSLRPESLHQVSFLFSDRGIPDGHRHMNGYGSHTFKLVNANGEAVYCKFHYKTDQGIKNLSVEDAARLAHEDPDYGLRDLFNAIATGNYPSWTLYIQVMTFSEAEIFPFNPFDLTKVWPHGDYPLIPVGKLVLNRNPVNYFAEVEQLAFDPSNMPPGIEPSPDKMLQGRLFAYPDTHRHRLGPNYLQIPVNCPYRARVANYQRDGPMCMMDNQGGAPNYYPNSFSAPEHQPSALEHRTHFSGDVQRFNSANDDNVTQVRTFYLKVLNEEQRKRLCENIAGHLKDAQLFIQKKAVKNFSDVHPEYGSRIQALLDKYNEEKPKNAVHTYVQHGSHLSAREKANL
Kind of experiment: H2O2 decomposition at A240 with purified BLC; supported by fluorescence quenching (K =[…] ^-1 at […] °C, n = […]). The experiment is classed as biochemical.

For orientation: IC50 means the concentration at which inhibition is half-maximal. Low readings indicate greater potency, high ones weaker potency. Take `Oc1ccc(/C=C/c2cc(O)cc(O)c2)cc1` [tRES, trans resveratrol]: inhibition was half-maximal at 8.1 µM (IC50).
